Source: patent publication US20250268166A1, “ALS-INHIBITOR HERBICIDE TOLERANT BETA VULGARIS HYBRIDS WITH INCREASED HETEROSIS” (BAYER AKTIENGESELLSCHAFT, priority 2021, published 2025)

Tested on: B. vulgaris plants comprising the BvALS_W569L allele
Test: Sensitivity of B. vulgaris plants to ALS inhibitor herbicide (BvALS_W569L allele vs wild type allele)
Type: in vivo, Beta vulgaris
From the text: Beta vulgaris plants comprising the BvALS_W569L allele are less sensitive to an ALS inhibitor, more preferably it is at least 100 times less sensitive, more preferably, 500 times, even more preferably 1000 times and most preferably […] 2000 times than Beta vulgaris plants comprising the wild-type allele. Less sensitive when used herein may, vice versa, be seen as “more tolerable” or “more resistant”. Similarly, “more tolerable” or “more resistant” may, vice versa, be seen as “less sensitive”. For example, B. vulgaris plants comprising the BvALS_W569L allele are at least 2000 times less sensitive to the ALS inhibitor herbicide foramsulfuron (a member of the ALS inhibitor subclass “sulfonylurea herbicides”) compared to B. vulgaris plants comprising a BvALS wild type allele.

`COc1cc(OC)nc(NC(=O)NS(=O)(=O)c2cc(NC=O)ccc2C(=O)N(C)C)n1` [foramsulfuron] was tested, and the “times less sensitive to the ALS inhibitor herbicide compared to B. vulgaris plants comprising a BvALS wild type allele” value was “at least 2000 times”.
